Measured values taken from patent publication US9359297B2, “Spirolactam derivatives and uses of same” (H. Lundbeck A/S, priority 2009, dated 2016).

Biological target: T1, human metabotropic glutamate receptor 5 (hmGluR5) (Homo sapiens, UniProt P41594)
T1 construct: expressed in transfected cells
Assay: Calcium mobilization (FLIPR) assay for negative allosteric modulation, EC80 glutamate, hmGluR5 in HEK 293
Type: cell-based
Settings: HEK293; hmGluR5, inhibition of EC80 glutamate response; read-out: FLIPR maximum inhibition
Protocol: The cDNA for rat metabotropic glutamate receptor 5 (rmGluR5) and the cDNA for human metabotropic glutamate receptor 5 (hmGluR5) were generous gifts from S. Nakanishi (Kyoto University, Kyoto, Japan). The rmGluR5 or hmGluR5 was stably expressed in a HEK 293 cell line and grown in Dulbecco's Modified Eagle Medium (DMEM) (Invitrogen, Carlsbad, Calif.) with supplements (10% bovine calf serum, 4 mM glutamine, 100 units/mL penicillin, 100 μg/mL streptomycin and 0.75 mM G1418) at 37° C., 5% CO2. Twenty-four hours prior to assay, cells were seeded into 384-well black wall microtiter plates coated with poly-D-lysine. Just prior to assay, media was aspirated and cells dye-loaded (25 μL/well) with 3 μM Fluo-4/0.01% pluronic acid in assay buffer (Hank's Balanced Saline Solution (HBSS)): 150 mM NaCl, 5 mM KCl, 1 mM CaCl2, 1 mM MgCl2, plus 20 mM N-2-Hydroxyethylpiperazine-N′-2-ethanesulfonic acid (HEPES), pH 7.4, 0.1% bovine serum albumin (BSA) and 2.5 mM probenicid) for 1 hour in 5% CO2 at 37° C. After excess dye was discarded, cells were washed in assay buffer and layered with a final volume equal to 30 μL/well. Basal fluorescence is monitored in a fluorometric imaging plate reader (FLIPR) (Molecular Devices, Sunnyvale, Calif.) with an excitation wavelength of 488 nm and an emission range of 500 to 560 nm. Laser excitation energy was adjusted so that basal fluorescence readings were approximately 10,000 relative fluorescent units. Cells were stimulated with an EC20 or an EC80 concentration of glutamate in the presence of a compound to be tested, both diluted in assay buffer, and relative fluorescent units were measured at defined intervals (exposure=0.6 sec) over a 3 min period at room temperature. Basal readings derived from negative controls were subtracted from all samples. Maximum change in fluorescence was calculated for each well. Concentration-response curves derived from the maximum change in fluorescence were analyzed by nonlinear regression (Hill equation). A negative modulator can be identified from these concentration-response curves if a compound produces a concentration dependent inhibition of the EC80 glutamate response.

T1 sequence (P41594 21-1212): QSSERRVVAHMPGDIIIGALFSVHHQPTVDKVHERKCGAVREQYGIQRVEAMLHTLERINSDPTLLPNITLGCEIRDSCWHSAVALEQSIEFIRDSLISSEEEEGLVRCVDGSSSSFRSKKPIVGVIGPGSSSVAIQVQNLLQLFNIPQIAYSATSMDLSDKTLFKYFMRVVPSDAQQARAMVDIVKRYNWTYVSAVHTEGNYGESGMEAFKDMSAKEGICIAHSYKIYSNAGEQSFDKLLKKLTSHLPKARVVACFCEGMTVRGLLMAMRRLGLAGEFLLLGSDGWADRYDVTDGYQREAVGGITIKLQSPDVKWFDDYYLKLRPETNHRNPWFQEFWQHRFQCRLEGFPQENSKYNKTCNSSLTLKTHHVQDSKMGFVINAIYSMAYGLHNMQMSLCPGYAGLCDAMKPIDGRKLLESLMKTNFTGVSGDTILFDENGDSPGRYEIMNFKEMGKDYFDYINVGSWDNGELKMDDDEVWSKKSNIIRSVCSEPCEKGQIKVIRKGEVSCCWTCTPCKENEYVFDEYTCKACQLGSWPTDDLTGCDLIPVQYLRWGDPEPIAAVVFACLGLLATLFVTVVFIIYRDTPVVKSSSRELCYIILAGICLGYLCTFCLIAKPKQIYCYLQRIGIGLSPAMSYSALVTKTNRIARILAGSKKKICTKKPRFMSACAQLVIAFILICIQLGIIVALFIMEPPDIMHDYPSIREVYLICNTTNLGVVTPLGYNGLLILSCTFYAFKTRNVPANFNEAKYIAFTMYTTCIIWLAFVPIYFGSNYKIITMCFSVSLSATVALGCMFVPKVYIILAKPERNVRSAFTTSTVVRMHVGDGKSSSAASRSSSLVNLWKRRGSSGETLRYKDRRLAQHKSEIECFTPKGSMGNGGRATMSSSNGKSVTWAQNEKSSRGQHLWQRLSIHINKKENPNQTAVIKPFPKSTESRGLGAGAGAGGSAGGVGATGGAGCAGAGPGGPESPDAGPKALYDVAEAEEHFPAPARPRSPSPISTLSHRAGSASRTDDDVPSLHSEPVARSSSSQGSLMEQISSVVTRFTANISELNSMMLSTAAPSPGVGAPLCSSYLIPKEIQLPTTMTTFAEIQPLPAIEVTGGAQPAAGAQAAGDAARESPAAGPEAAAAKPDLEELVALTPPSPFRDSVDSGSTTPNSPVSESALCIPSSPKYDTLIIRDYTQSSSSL

| Structure (SMILES) | Emax [%] |
| --- | --- |
| O=C(N[C@@H]1CC(F)(F)C[C@@]2(CCN(c3ccc(F)cn3)C2=O)C1)c1ccccn1 (relative stereo) [Example 111, cis-Pyridine-2-carboxylic acid [9,9-difluoro-2-(5-fluoro-pyridin-2-yl)-1-oxo-2-aza-spiro[4.5]dec-7-yl]-amide] | 47 to 93 |
| Cn1ccc(N2CCC3(CCCC(NC(=O)c4cccc(F)c4)C3)C2=O)n1 (stereo not shown) [Example 158, 3-Fluoro-N-[2-(1-methyl-1H-pyrazol-3-yl)-1-oxo-2-aza-spiro[4.5]dec-7-yl]-benzamide] | 47 to 93 |
| CCCCC(=O)N[C@@H]1CCC[C@@]2(CCN(c3cc(F)cc(F)c3)C2=O)C1 (relative stereo) [Example 145, cis-Pentanoic acid [2-(3,5-difluoro-phenyl)-1-oxo-2-aza-spiro[4.5]dec-7-yl]-amide] | 47 to 93 |
| Cc1nccc(C(=O)N[C@@H]2C[C@](C)(O)C[C@@]3(CCN(c4cc(F)cc(F)c4)C3=O)C2)n1 (single isomer, unassigned) [Example 119, cis-2-Methyl-pyrimidine-4-carboxylic acid [2-(3,5-difluoro-phenyl)-9-hydroxy-9-methyl-1-oxo-2-aza-spiro[4.5]dec-7-yl]-amide] | 47 to 93 |
| CN1CCC(N2CCC3(CCCC(NC(=O)c4cccc(F)c4)C3)C2=O)CC1 (stereo not shown) [Example 157, 3-Fluoro-N-[2-(1-methyl-piperidin-4-yl)-1-oxo-2-aza-spiro[4.5]dec-7-yl]-benzamide] | 47 to 93 |
| Cc1cccc(C(=O)N[C@@H]2CCC[C@@]3(CCN(c4cc(F)cc(F)c4)C3=O)C2)n1 (single isomer, unassigned) [Example 67] | 73 to 95 |
| Cc1cc(N2CC[C@]3(CCC[C@H](NC(=O)c4cccc(F)c4)C3)C2=O)nc(C)n1 (relative stereo) [Example 151, cis-N-[2-(2,6-Dimethyl-pyrimidin-4-yl)-1-oxo-2-aza-spiro[4.5]dec-7-yl]-3-fluoro-benzamide] | 47 to 93 |
| O=C(N[C@@H]1C[C@@H](O)C[C@@]2(CCN(c3cccc(F)c3)C2=O)C1)c1cccc(F)c1 (relative stereo) [Example 125, trans-3-Fluoro-N-[2-(3-fluoro-phenyl)-9-hydroxy-1-oxo-2-aza-spiro[4.5]dec-7-yl]-benzamide] | 47 to 93 |
| COc1cccc(N2CC[C@]3(CCC[C@H](NC(=O)c4cccc(F)c4)C3)C2=O)c1 (relative stereo) [Example 130, cis-3-Fluoro--N-[-2-(3-methoxy-phenyl)-1-oxo-2-aza-spiro[4.5]dec-7-yl]-benzamide] | 47 to 93 |
| O=C(N[C@H]1CCC[C@]2(CCN(c3ccc(F)c(F)c3)C2=O)C1)c1ccccn1 (relative stereo) [Example 75, cis-Pyridine-2-carboxylic acid [2-(3,4-difluoro-phenyl)-1-oxo-2-aza-spiro[4.5]dec-7-yl]-amide] | 73 to 95 |
| CCCC(=O)N[C@@H]1CCC[C@@]2(CCN(c3cc(F)cc(F)c3)C2=O)C1 (relative stereo) [Example 146, cis-N-[2-(3,5-Difluoro-phenyl)-1-oxo-2-aza-spiro[4.5]dec-7-yl]-butyramide] | 47 to 93 |
| O=C(N[C@@H]1CC(F)(F)C[C@@]2(CCN(c3cc(F)cc(F)c3)C2=O)C1)c1ccccn1 (racemic) [Example 110, cis-Pyridine-2-carboxylic acid [2-(3,5-difluoro-phenyl)-9,9-difluoro-1-oxo-2-aza-spiro[4.5]dec-7-yl]-amide] | 47 to 93 |
| Cc1cccc(C(=O)N[C@@H]2CC(=O)C[C@@]3(CCN(c4cccc(F)c4)C3=O)C2)n1 (relative stereo) [Example 124, cis-6-Methyl-pyridine-2-carboxylic acid [2-(3-fluoro-phenyl)-1,9-dioxo-2-aza-spiro[4.5]dec-7-yl]-amide] | 47 to 93 |
| O=C(N[C@@H]1CC(F)(F)C[C@@]2(CCN(c3ccc(F)cc3)C2=O)C1)c1ccccn1 (relative stereo) [Example 106, cis-Pyridine-2-carboxylic acid [9,9-difluoro-2-(4-fluoro-phenyl)-1-oxo-2-aza-spiro[4.5]dec-7-yl]-amide] | 47 to 93 |
| Cc1nccc(C(=O)N[C@H]2CCC[C@]3(CCN(c4cccc(C(F)(F)F)n4)C3=O)C2)n1 (relative stereo) [Example 61, cis-2-Methyl-pyrimidine-4-carboxylic acid [1-oxo-2-(6-trifluoromethyl-pyridin-2-yl)-2-aza-spiro[4.5]dec-7-yl]-amide] | 73 to 95 |
| Cc1nccc(C(=O)N[C@H]2CCC[C@]3(CCN(c4cc(F)cc(F)c4)C3=O)C2)n1 (racemic) [Example 76, cis 2-Methyl-pyrimidine-4-carboxylic acid [2-(3,5-difluoro-phenyl)-1-oxo-2-aza-spiro[4.5]dec-7-yl]-amide] | 73 to 95 |

| Structure (SMILES) | Emax [%] |
| --- | --- |
| O=C1c2ccccc2CN1C1CCCC2(CCN(c3cccc(Cl)c3)C2=O)C1 (single isomer, unassigned) [Example 100, cis-2-[2-(3-chloro-phenyl)-1-oxo-2-aza-spiro[4.5]dec-7-yl]-2,3-dihydro-isoindol-1-one] | 47 to 93 |
| COc1ccc(N2CC[C@]3(CCC[C@H](NC(=O)c4cccc(F)c4)C3)C2=O)cc1 (relative stereo) [Example 133] | 47 to 93 |
| Cc1nc(C(=O)N[C@@H]2CCC[C@@]3(CCN(c4cc(F)cc(F)c4)C3=O)C2)cs1 (relative stereo) [Example 144, cis-2-Methyl-thiazole-4-carboxylic acid [2-(3,5-difluoro-phenyl)-1-oxo-2-aza-spiro[4.5]dec-7-yl]-amide] | 47 to 93 |
| Cc1cncc(N2CC[C@]3(CCC[C@H](NC(=O)c4ccnc(C)n4)C3)C2=O)n1 (relative stereo) [Example 59, cis-2-Methyl-pyrimidine-4-carboxylic acid [2-(6-methyl-pyrazin-2-yl)-1-oxo-2-aza-spiro[4.5]dec-7-yl]-amide] | 73 to 95 |
| Cc1cc(N2CC[C@]3(CCC[C@H](NC(=O)c4cccc(F)c4)C3)C2=O)ccn1 (relative stereo) [Example 66, cis-3-Fluoro-N-[2-(2-methyl-pyridin-4-yl)-1-oxo-2-aza-spiro[4.5]dec-7-yl]-benzamide] | 73 to 95 |
| Cc1cccc(C(=O)N[C@@H]2CCC[C@@]3(CCN(c4ccnc(C(F)(F)F)n4)C3=O)C2)n1 [Example 156, 6-Methyl-pyridine-2-carboxylic acid[(5R,7R)-1-oxo-2-(2-trifluoromethyl-pyrimidin-4-yl)-2-aza-spiro[4.5]dec-7-yl]-amide] | 47 to 93 |
| O=C(N[C@H]1CCC[C@]2(CCN(c3cccc(F)c3)C2=O)C1)c1ccncn1 (relative stereo) [Example 70, cis-Pyrimidine-4-carboxylic acid [2-(3-fluoro-phenyl)-1-oxo-2-aza-spiro [4.5]dec-7-yl]-amide] | 73 to 95 |
| Cc1nccc(N2CC[C@]3(CCC[C@H](NC(=O)c4nccs4)C3)C2=O)n1 (relative stereo) [Example 140] | 47 to 93 |
| O=C(N[C@H]1CCC[C@]2(CCN(c3cccc(CCCN4CCOCC4)c3)C2=O)C1)c1cccc(F)c1 (relative stereo) [Example 134, cis-3-Fluoro-N-{2-[3-(3-morpholin-4-yl-propyl)-phenyl]-1-oxo-2-aza-spiro[4.5]dec-7-yl}-benzamide] | 47 to 93 |
| Cc1cc(C(=O)N[C@@H]2CCC[C@@]3(CCN(c4cccc(F)c4)C3=O)C2)ccn1 [Example 95, N-[(5R,7R)-2-(3-Fluoro-phenyl)-1-oxo-2-aza-spiro[4.5]dec-7-yl]-2-methyl-isonicotinamide] | 73 to 95 |
| O=C(N[C@H]1CCC[C@]2(CCN(c3cccc(OCC(=O)N4CCCC4)c3)C2=O)C1)c1cccc(F)c1 (relative stereo) [Example 136, cis-3-Fluoro-N-{1-oxo-2-[3-(2-oxo-2-pyrrolidin-1-yl-ethoxy)-phenyl]-2-aza-spiro[4.5]dec-7-yl}-benzamide] | 47 to 93 |
| O=C(N[C@H]1CCC[C@]2(CCN(c3ccnc(C(F)(F)F)n3)C2=O)C1)c1cccc(F)c1 (relative stereo) [Example 150, cis-3-Fluoro-N-[1-oxo-2-(2-trifluoromethyl-pyrimidin-4-yl)-2-aza-spiro[4.5]dec-7-yl]-benzamide] | 47 to 93 |
| Cc1nccc(N2CC[C@]3(CCC[C@H](NC(=O)c4cc(F)cc(F)c4)C3)C2=O)n1 (relative stereo) [Example 85, cis-3,5-Difluoro-N-[2-(2-methyl-pyrimidin-4-yl)-1-oxo-2-aza-spiro [4.5]dec-7-yl]-benzamide] | 73 to 95 |
| CCCN1CC[C@]2(CCC[C@H](NC(=O)c3cccc(C)n3)C2)C1=O (relative stereo) [Example 155] | 47 to 93 |
| CCN1CC[C@]2(CCC[C@H](NC(=O)c3cccc(C)n3)C2)C1=O (relative stereo) [Example 154] | 47 to 93 |
